Experimental data reported in patent US12281083B2, “2-substituted amino-naphth (1,2-d) imidazol-5-one compounds of pharmaceutically acceptable salts thereof” (PTC Therapeutics, Inc., priority 2016, dated 2025).

Test system: Friedreich ataxia patient-derived human dermal fibroblasts
Assay: Cell viability evaluation test using human dermal fibroblasts derived from a Friedreich ataxia patient (BSO stress)
Format: cell-based
Conditions: Fibroblast, rescue of cell viability, 30 μM BSO, 48 hours, Calcein-AM fluorescence, no BSO = 100%, BSO only = 0%
Protocol: Cell Viability Evaluation Test Using Human Dermal Fibroblasts Derived from a Friedreich Ataxia Patient
Compounds described herein were tested for their ability to rescue Friedreich ataxia patient-derived dermal fibroblasts stressed by the addition of L-buthionine-(S,R)-sulfoximine (BSO).
A MEMα medium and a Medium 199 medium were obtained from Thermo Scientific, and fetal bovine serum was obtained from DS Pharma. Basic fibroblast growth factor (b-FGF) was purchased from Funakoshi Co., Ltd. and epidermal growth factor (EGF) was purchased from PeproTech Inc. L-Buthionine-(S,R)-sulfoximine and bovine pancreas-derived insulin were purchased from Sigma. Calcein-AM was purchased from DOJINDO. An assay medium is a medium of 64% MEMα medium and 25% Medium 199 medium, and contains 10% fetal bovine serum, EGF whose final concentration is 10 ng/ml, 10 ng/ml of bFGF, and 10 μg/mL insulin. Cells were purchased from Coriell Institute.
A test compound was dissolved in DMSO to make a 1 mM or 10 mM stock solution. From this stock solution, serially diluted solutions were further prepared using DMSO and used in an assay.
Friedreich ataxia patient-derived human dermal fibroblasts were suspended in an assay medium, seeded into a 384-well plate at 650 cells/well/20 μl, and incubated at 37° C. in a 5% carbon dioxide incubator overnight. A test compound solution prepared in an assay medium from the serially diluted solution (DMSO) at 5 times higher than the final concentration was added in 10 μL per well of the cell-seeded plate. Then, 10 μL of 150 μM BSO solution was added. The amount of a reaction solution was adjusted to be finally 50 μL, and the final BSO concentration was made at 30 μM. The plate was incubated at 37° C. in 5% CO2 for 48 hours, and then media were removed from all wells, and 20 μl of a Calcein-AM solution, which had been 550-fold diluted by PBS, was added to each well. The plate was incubated at 37° C. for 20 to 30 minutes, and then fluorescence (485 nm/525 nm of excitation/radiation wavelength) was measured by a fluorescence plate reader.
The degree of the viability of fibroblasts that were not treated with BSO was regarded as 100%, the degree of the viability of cells that were treated with BSO only (without a compound) was regarded as 0%, and the viability of cells that were treated with a compound was calculated.

Row | SMILES | EC50
1 | CN(C)C1=NC2=C(c3ccc4c(c3)OCCCO4)C(=O)c3ccccc3C2=N1 [Example 79] | 39.1 nM
2 | COc1ccc(C2=C3N=C(N(C)C)N=C3c3ccccc3C2=O)cn1 [Example 3] | < 20 nM
3 | CN(C)C1=NC2=C(c3ccccc3N(C)C)C(=O)c3ccccc3C2=N1 [Example 17] | 8.5 nM
4 | CN(C)C1=NC2=C(c3ccc4c(c3)OCCN4C)C(=O)c3ccccc3C2=N1 [Example 77] | 17 nM
5 | CC(C)N1CCN(c2ccc(C3=C4N=C(N(C)C)N=C4c4ccccc4C3=O)cc2)CC1 [Example 74] | < 3 nM
6 | CN(C)C1=NC2=C(c3ccc(N4CCOCC4)cc3)C(=O)c3ccccc3C2=N1 [Example 40] | 11.6 nM
7 | COc1ccc(C2=C3N=C(N(C)C)N=C3c3ccccc3C2=O)c(C(F)(F)F)c1 [Example 31] | 15 nM
8 | Cc1ccccc1C1=C2N=C(N(C)C)N=C2c2ccccc2C1=O [Example 4] | 3.7 nM
9 | Cc1nn(C)cc1C1=C2N=C(N(C)C)N=C2c2ccccc2C1=O [Example 75] | 12.1 nM
10 | COc1ccc(C)c(C2=C3N=C(N(C)C)N=C3c3ccccc3C2=O)c1 [Example 83] | 18.3 nM
11 | Cc1ccc(C2=C3N=C(N(C)C)N=C3c3ccccc3C2=O)cc1 [Example 2] | 17 nM
12 | COCc1cccc(C2=C3N=C(N(C)C)N=C3c3ccccc3C2=O)c1 [Example 43] | 20.1 nM
13 | CN(C)C1=NC2=C(c3ccccc3Cl)C(=O)c3ccccc3C2=N1 [Example 33] | 16 nM
14 | CN(C)C1=NC2=C(c3ccccc3C(F)(F)F)C(=O)c3ccccc3C2=N1 [Example 20] | < 3 nM
15 | Cc1cc(OC(F)(F)F)ccc1C1=C2N=C(N(C)C)N=C2c2ccccc2C1=O [Example 26] | 7.2 nM
16 | CCN(CC)C1=NC2=C(c3cccc(OC)c3C)C(=O)c3ccccc3C2=N1 [Example 88] | 17.1 nM
17 | CCN(CC)C(=O)c1ccccc1C1=C2N=C(N(CC)CC)N=C2c2ccccc2C1=O [Example 68] | 40.5 nM
18 | Cc1c(C2=C3N=C(N(C)C)N=C3c3ccccc3C2=O)cnn1-c1ccccc1 [Example 76] | 20.3 nM
19 | Cc1ccncc1C1=C2N=C(N(C)C)N=C2c2ccccc2C1=O [Example 32] | 6 nM
20 | CCN(CC)C1=NC2=C(c3c(C)noc3C)C(=O)c3ccccc3C2=N1 [Example 46] | 14.9 nM

Row | SMILES | EC50
21 | CN(C)C1=NC2=C(c3cnn(C)c3)C(=O)c3ccccc3C2=N1 [Example 38] | 18.8 nM
22 | CN(C)C1=NC2=C(c3cccc4cccnc34)C(=O)c3ccccc3C2=N1 [Example 14] | 41 nM
23 | Cc1nn(C)c(C)c1C1=C2N=C(N(C)C)N=C2c2ccccc2C1=O [Example 35] | 2.5 nM
24 | COc1ccc(C2=C3N=C(N(C)C)N=C3c3ccccc3C2=O)c(C)c1 [Example 16] | 9.1 nM
25 | CN(C)C1=NC2=C(c3nn(C)c4ccccc34)C(=O)c3ccccc3C2=N1 [Example 42] | 5.1 nM
26 | Cc1noc(C)c1C1=C2N=C(N3CCOCC3)N=C2c2ccccc2C1=O [Example 47] | 4.9 nM
27 | CN(C)C1=NC2=C(c3ccccc3N3CCCC3)C(=O)c3ccccc3C2=N1 [Example 13] | 5.4 nM
28 | Cc1cccc(C2=C3N=C(N(C)C)N=C3c3ccccc3C2=O)c1 [Example 15] | 6 nM
29 | CN1CCN(c2ccc(C3=C4N=C(N(C)C)N=C4c4ccccc4C3=O)cc2)CC1 [Example 80] | 10 nM
30 | Cc1nc(-c2ccccc2)sc1C1=C2N=C(N(C)C)N=C2c2ccccc2C1=O [Example 78] | > 100 nM
31 | CN(C)C1=NC2=C(c3ccccc3C#N)C(=O)c3ccccc3C2=N1 [Example 71, 2-[(2-dimethylamino)-5-oxo-5H-naphth[1,2-d]imidazol-4-yl]benzonitrile] | 15 nM
32 | COc1cccc(C2=C3N=C(N(C)C)N=C3c3ccccc3C2=O)c1F [Example 92] | 30.2 nM
33 | CCOc1ccc(C2=C3N=C(N(C)C)N=C3c3ccccc3C2=O)c(C)c1 [Example 63] | 18.4 nM
34 | CN(C)C(=O)c1cccc(C2=C3N=C(N(C)C)N=C3c3ccccc3C2=O)c1 [Example 41] | 12.9 nM
35 | Cc1cc(C#N)ccc1C1=C2N=C(N(C)C)N=C2c2ccccc2C1=O [Example 36] | 9.5 nM
36 | CN(C)C1=NC2=C(c3ccccc3N3CCOCC3)C(=O)c3ccccc3C2=N1 [Example 11] | 6.4 nM
37 | Cc1ncccc1C1=C2N=C(N(C)C)N=C2c2ccccc2C1=O [Example 34] | 7 nM
38 | CN(C)C1=NC2=C(c3ccccc3N3CCNCC3)C(=O)c3ccccc3C2=N1 [Example 73] | 7.2 nM
39 | Cc1cc(N2CCN(C)CC2)ccc1C1=C2N=C(N(C)C)N=C2c2ccccc2C1=O [Example 62] | 5.5 nM
40 | COc1ccc(C2=C3N=C(N(C)C)N=C3c3ccccc3C2=O)c(Cl)c1 [Example 82] | 16.5 nM

Row | SMILES | EC50
41 | Cc1cc(C(F)(F)F)ccc1C1=C2N=C(N(C)C)N=C2c2ccccc2C1=O [Example 23] | 5.9 nM
42 | COc1ccc(C2=C3N=C(N(C)C)N=C3c3ccccc3C2=O)c(F)c1 [Example 8] | 10 nM
43 | COc1cccc(F)c1C1=C2N=C(N(C)C)N=C2c2ccccc2C1=O [Example 12] | 6.4 nM
44 | COc1ccc(Cl)c(C2=C3N=C(N(C)C)N=C3c3ccccc3C2=O)c1 [Example 86] | 14.9 nM
45 | Cc1cc(F)ccc1C1=C2N=C(N(C)C)N=C2c2ccccc2C1=O [Example 21] | 7.9 nM
46 | COc1cccc(C2=C3N=C(N(C)C)N=C3c3ccccc3C2=O)c1C [Example 87] | 17.1 nM
47 | COc1ccc(C2=C3N=C(N(C)C)N=C3c3ccccc3C2=O)cc1 [Example 1, 2-(Dimethylamino)-4-(4-methoxyphenyl)-5H-naphth[1,2-d]imidazol-5-one] | 20 to 100 nM
48 | Cc1ccc(C2=C3N=C(N(C)C)N=C3c3ccccc3C2=O)c(C)c1 [Example 44] | 17 nM
49 | CCN(CC)C1=NC2=C(c3cccc(OC)c3F)C(=O)c3ccccc3C2=N1 [Example 93] | 29.1 nM
50 | CN(C)C1=NC2=C(c3ccc4cnn(C)c4c3)C(=O)c3ccccc3C2=N1 [Example 56] | 14.5 nM
51 | COc1ccc(F)c(C2=C3N=C(N(C)C)N=C3c3ccccc3C2=O)c1 [Example 90] | 14 nM
52 | CC(=O)Nc1cccc(C2=C3N=C(N(C)C)N=C3c3ccccc3C2=O)c1 [Example 59] | 4 nM
53 | CC(=O)c1ccc(C2=C3N=C(N(C)C)N=C3c3ccccc3C2=O)c(C)c1 [Example 89] | 14.3 nM
54 | Cc1cnccc1C1=C2N=C(N(C)C)N=C2c2ccccc2C1=O [Example 28] | 4.8 nM
55 | CN(C)C1=NC2=C(c3ccc(N(C)C)cc3)C(=O)c3ccccc3C2=N1 [Example 72] | 20 to 100 nM
56 | COc1ccccc1C1=C2N=C(N(C)C)N=C2c2ccccc2C1=O [Example 10] | 5.1 nM
57 | CCN(CC)C1=NC2=C(c3cccc4cn[nH]c34)C(=O)c3ccccc3C2=N1 [Example 51] | 11.8 nM
58 | Cc1noc(C)c1C1=C2N=C(N(C)C)N=C2c2ccccc2C1=O [Example 39] | 6.1 nM
59 | COc1cccc(C2=C3N=C(N(C)C)N=C3c3ccccc3C2=O)c1Cl [Example 94] | 22.6 nM
60 | CN(C)C1=NC2=C(c3ccccc3F)C(=O)c3ccccc3C2=N1 [Example 5] | 14 nM
